Laboratory results taken from patent US20240294551A1 (AMGEN INC., priority 2022, published 2024).
Structures can show the parent of a compound that is named as a salt. Where two headings read alike, the source gives them in different places.

How the values were obtained:
[1] = molecular target: GDP-bound KRAS protein (aa 1-169), containing both G12D and C118A amino acid substitutions (Homo sapiens (Human), UniProt P01116, C118A/G12D); test: KRAS G12D Coupled Nucleotide Exchange Assay; assay type: biochemical; conditions: read-out: KRAS G12D Coupled Exchange IC50
[2] = system: AsPC-1 cells; test: AsPC-1 CTG Assay (CellTiter-Glo cell viability); assay type: cell-based, human; conditions: Homo sapiens, ASPC1, 72 h, first value of the cell, read-out: G12D/C/V Cell Proliferation CTG (72 h) AsPC-1
Experimental: AsPC-1 and SW620 CTG Assay Protocols
AsPC-1 (human pancreatic adenocarcinoma; ATCC CRL-1682) or SW620 (human colon adenocarcinoma; ATCC CCL-227) cells were cultured in RPMI 1640 medium containing 10% fetal bovine serum and 1× penicillin/streptomycin/L-glutamine. Cells were seeded in 384-well plates at a density of 3.33E+04 cells/mL and incubated at 37° C., 5% CO2, overnight. Serially-diluted compound or DMSO was added to the cells, and plates were incubated at 37° C., 5% CO2 for 72 h. Cell viability was measured using a CellTiter-Glo® Luminescent Cell Viability Assay kit (Promega) according to the manufacturer's protocol. The luminescence signal of treated samples was normalized to DMSO control, and data were analyzed using a 4-parameter logistic model to calculate IC50 values.

[3] = system: Phosphorylation of ERK1/2 in AsPC-1 cells; test: Phospho-ERK1/2 MSD Assay; assay type: cell-based, human; conditions: Homo sapiens, ASPC1, 2 h
In short: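 Read-out: MSD electrochemiluminescent detection of phosphorylated ERK1/2 in whole-cell lysates, fitted to a 4-parameter logistic curve for IC50. Prior to lysis, AsPC-1 cells (25,000 per well) received a 2 h compound dose-response at 37 °C.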

[4] = molecular target: His-tagged KRAS G12D protein (Homo sapiens (Human), UniProt P01116, G12D); test: KRAS G12D TR-FRET Assay; assay type: binding; conditions: read-out: KRAS G12D Binding IC50
In short: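 Each incubation ran at room temperature: enzyme with compound for 30 minutes, peptide for one hour, and detection reagents (0.4 nM europium anti-6×His, 5 nM streptavidin-d2) for one hour more. Protein and peptide stocks were each diluted to 20 nM before addition.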

[5] = read-out: 2 h p-ERK (AsPC-1 cells), IC50

Chain of GDP-bound KRAS protein (aa 1-169), containing both G12D and C118A amino acid substitutions (P01116 other isoform, or with tags, fused parts or gaps G12D/C118A): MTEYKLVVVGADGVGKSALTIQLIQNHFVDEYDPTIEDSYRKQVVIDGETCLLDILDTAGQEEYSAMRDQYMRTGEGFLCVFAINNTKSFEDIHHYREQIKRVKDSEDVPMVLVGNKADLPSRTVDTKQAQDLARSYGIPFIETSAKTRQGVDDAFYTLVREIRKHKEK
Chain of His-tagged KRAS G12D protein (P01116 other isoform, or with tags, fused parts or gaps G12D): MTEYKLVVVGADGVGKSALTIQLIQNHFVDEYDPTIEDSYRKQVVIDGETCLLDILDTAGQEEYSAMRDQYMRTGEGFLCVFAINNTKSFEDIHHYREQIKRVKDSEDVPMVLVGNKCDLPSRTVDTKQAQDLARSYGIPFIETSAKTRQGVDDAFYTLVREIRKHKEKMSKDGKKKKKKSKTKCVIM

Compound | IC50 [1] [nM] | IC50 ([2]; AsPC-1, 72 h) [nM] | IC50 [3, 5] [nM] | IC50 [4] [nM] | IC50 ([2]; AsPC-1 cells (G12D), 72 h) [nM] | IC50 ([3]; read-out: 2 h p-ERK (AsPC-1 cells)) [nM]
O=C1C[C@H]2CN(CCO2)c2nc(OC[C@@]34CCCN3C[C@H](F)C4)nc3c(F)c(ncc23)-c2c(c(Cl)cc3[nH]ncc23)CCCO1 [Example 79, (17S)-9-chloro-30-fluoro-24-(((2R,7aS)-2-fluorotetrahydro-1H-pyrrolo[1,2-a]pyrrol-7a(5H)-yl)methoxy)-14,18-dioxa-5,6,21,23,25,29-hexaazahexacyclo[24.3.1.1~17,21~.0~2,10~.0~3,7~.0~22,27~]hentriaconta-1(30),2,4,7,9,22,24,26,28-nonaen-15-one] | 3 | 60 | 4 | 4 |  | 
O=C1N[C@@H]2CCCCN(C2)c2nc(OC[C@@]34CCCN3C[C@H](F)C4)nc3c(F)c(ncc23)-c2c3c(cc4[nH]ncc24)CC[C@H]3CCO1 [Example 301, (16R,22S)-34-fluoro-8-(((2R,7aS)-2-fluorotetrahydro-1H-pyrrolo[1,2-a]pyrrol-7a(5H)-yl)methoxy)-19-oxa-3,7,9,11,17,28,29-heptaazaheptacyclo[20.9.1.1~2,6~.1~11,16~.0~5,10~.0~25,32~.0~27,31~]tetratriaconta-1(31),2(34),3,5,7,9,25(32),26,29-nonaen-18-one] | 3 | 954 | 60.5 | 5 |  | 
C[C@@]12CCCN(C1)c1nc(OC[C@@]34CCCN3C[C@H](F)C4)nc3c(F)c(ncc13)-c1cc(O)cc3c1[C@@H](CCCC(=O)N2)CCC3 [Example 27, (15R,21R)-31-Fluoro-8-(((2R,7aS)-2-fluorotetrahydro-1H-pyrrolo[1,2-a]pyrrol-7a(5H)-yl)methoxy)-27-hydroxy-15-methyl-3,7,9,11,16-pentaazahexacyclo[19.7.1.1˜2,6˜.1˜11,15˜.0˜5,10˜.0˜25,29˜]hentriaconta-1(29),2(31),3,5,7,9,25,27-octaen-17-one 2,2,2-trifluoroacetate salt] | 5 | 661 | 180 | 7 |  | 
CC12COCCN(C1)c1nc(OC[C@@]34CCCN3C[C@H](F)C4)nc3cc(nnc13)-c1c(c(Cl)cc3[nH]ncc13)CCCOC(=O)O2 (stereo in doubt) [Example 362, (26R)-18-chloro-4-(((2R,7aS)-2-fluorotetrahydro-1H-pyrrolo[1,2-a]pyrrol-7a(5H)-yl)methoxy)-26-methyl-23,25,28-trioxa-1,3,5,8,9,14,15-heptaazahexacyclo[24.4.1.1~6,10~.0~2,7~.0~11,19~.0~12,16~]dotriaconta-2,4,6(32),7,9,11,13,16,18-nonaen-24-one] |  | 1450 | 133 |  |  | 
O[C@@H]1CCOCCc2c(Cl)cc3[nH]ncc3c2-c2ncc3c(nc(OC[C@@]45CCCN4C[C@H](F)C5)nc3c2F)N2CCC[C@@H]1C2 [Example 404, (16R,17R)-9-Chloro-30-fluoro-24-(((2R,7aS)-2-fluorotetrahydro-1H-pyrrolo[1,2-a]pyrrol-7a(5H)-yl)methoxy)-13-oxa-5,6,21,23,25,29-hexaazahexacyclo[24.3.1.1~17,21~.0~2,10~.0~3,7~.0~22,27~]hentriaconta-1(30),2,4,7,9,22,24,26,28-nonaen-16-ol] |  |  |  |  | 1570 | 236
Fc1c2ncc3c(nc(OC[C@@]45CCCN4C[C@H](F)C5)nc13)N1CCC[C@H](C1)c1coc(n1)CCCc1c(Cl)cc3[nH]ncc3c1-2 [Example 157, (18R)-9-chloro-31-fluoro-25-(((2R,7aS)-2-fluorotetrahydro-1H-pyrrolo[1,2-a]pyrrol-7a(5H)-yl)methoxy)-15-oxa-5,6,22,24,26,30,33-heptaazaheptacyclo[25.3.1.1~14,17~.1~18,22~.0~2,10~.0~3,7~.0~23,28~]tritriaconta-1(31),2,4,7,9,14(33),16,23,25,27,29-undecaene] |  | 60 | 7 |  |  | 
[2H]C([2H])([2H])[C@@]12COCCN(C1)c1nc(OC[C@@]34CCCN3C[C@H](F)C4)nc3c(F)c(ncc13)-c1c(c(C)cc3[nH]ncc13)CCCOC(=O)O2 [Example 352, (26S)-32-fluoro-4-(((2R,7aS)-2-fluorotetrahydro-1H-pyrrolo[1,2-a]pyrrol-7a(5H)-yl)methoxy)-18-methyl-26-(~2~H_3_)methyl-23,25,28-trioxa-1,3,5,9,14,15-hexaazahexacyclo[24.4.1.1~6,10~.0~2,7~.0~11,19~.0~12,16~]dotriaconta-2,4,6,8,10(32),11,13,16,18-nonaen-24-one] | 2 | 103 | 8.2 |  |  | 
O=C1OCCc2c(Cl)cc3[nH]ncc3c2-c2ncc3c(nc(OC[C@@]45CCCN4C[C@H](F)C5)nc3c2F)N2CCC[C@]3(C[C@@H](CO3)O1)C2 [Example 315, (1S,4S)-11-chloro-33-fluoro-25-(((2R,7aS)-2-fluorotetrahydro-1H-pyrrolo[1,2-a]pyrrol-7a(5H)-yl)methoxy)-2,5,7-trioxa-14,15,20,24,26,28-hexaazaheptacyclo[26.3.1.1~1,4~.1~19,23~.0~10,18~.0~13,17~.0~22,27~]tetratriaconta-10,12,15,17,19(33),20,22,24,26-nonaen-6-one] |  | 23 | 20.8 |  |  | 
C[C@H](Oc1nc2c3cnc(c(F)c3n1)-c1c(c(Cl)cc3[nH]ncc13)CCCOC(=O)O[C@@H]1COCCN2C1)[C@@H]1CCCN1C [Example 204, (26S)-18-chloro-32-fluoro-4-((1S)-1-((2S)-1-methyl-2-pyrrolidinyl)ethoxy)-23,25,28-trioxa-1,3,5,9,14,15-hexaazahexacyclo[24.4.1.1~6,10~.0~2,7~.0~11,19~.0~12,16~]dotriaconta-2,4,6,8,10(32),11,13,16,18-nonaen-24-one] | 16 |  | 429 | 34 |  | 
CN1C(=O)CCCCc2c(Cl)cc3[nH]ncc3c2-c2cc3nc(OC[C@@]45CCCN4C[C@H](F)C5)nc(c3nn2)N2CCC[C@@H]1C2 [Example 73, (17R)-9-Chloro-24-(((2R,7aS)-2-fluorotetrahydro-1H-pyrrolo[1,2-a]pyrrol-7a(5H)-yl)methoxy)-16-methyl-5,6,16,21,23,25,28,29-octaazahexacyclo[24.3.1.1˜17,21˜.0˜2,10˜.0˜3,7˜.0˜22,27˜]hentriaconta-1(30),2,4,7,9,22,24,26,28-nonaen-15-one] | 20 |  | 2070 | 29 |  | 
CN1CCN(c2nc3c4cnc(c(F)c4n2)-c2c(c(Cl)cc4[nH]ncc24)CCCOC(=O)O[C@@H]2COCCN3C2)CC1 [Example 347, (26S)-18-chloro-32-fluoro-4-(4-methyl-1-piperazinyl)-23,25,28-trioxa-1,3,5,9,14,15-hexaazahexacyclo[24.4.1.1~6,10~.0~2,7~.0~11,19~.0~12,16~]dotriaconta-2,4,6,8,10(32),11,13,16,18-nonaen-24-one] | 7 |  | 200 | 27 |  | 
O=C1OCCc2c(F)ccc3cccc(c23)-c2ncc3c(nc(OC[C@@]45CCCN4C[C@H](F)C5)nc3c2F)N2CCOC[C@H](C2)O1 [Example 371] | 4 |  | 239 | 8 |  | 
